Measurements taken from PubChem BioAssay (NCI).
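Five compound concentrations were applied to cells in 96-well plates for 48 hours; endpoints were derived by simple linear interpolation of the resulting dose-response curve. TGI marks complete inhibition of growth.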

Tests used:
Experiment in all cases: inhibition of tumour cell growth, NCI panel, 48 h
SF-539 CNS = tested on: SF-539 CNS
MCF7 breast = tested on: MCF7 breast
MDA-MB-231 breast = tested on: MDA-MB-231 breast
COLO 205 colon = tested on: COLO 205 colon
MOLT-4 leukemia = tested on: MOLT-4 leukemia
SF-295 CNS = tested on: SF-295 CNS
786-0 renal = tested on: 786-0 renal
NCI-H226 lung = tested on: NCI-H226 lung
HOP-92 NSCLC = tested on: HOP-92 NSCLC
RXF 393 renal = tested on: RXF 393 renal
NCI-H522 lung = tested on: NCI-H522 lung

Row | Structure (SMILES) | TGI (SF-539 CNS) [µM] | TGI (MCF7 breast) [µM] | TGI (MDA-MB-231 breast) [µM] | TGI (COLO 205 colon) [µM] | TGI (MOLT-4 leukemia) [µM] | TGI (SF-295 CNS) [µM] | TGI (786-0 renal) [µM] | TGI (NCI-H226 lung) [µM] | TGI (HOP-92 NSCLC) [µM] | TGI (RXF 393 renal) [µM] | TGI (NCI-H522 lung) [µM]
1 | CN(C)c1ccc(/C(Br)=C2\OC(=O)c3ccccc32)cc1 | > 100 | > 100 | > 100 | > 100 | > 100 | > 100 | > 100 | > 100 |  |  | 
2 | COc1ccc(CNc2nc3ccc(C(F)(F)F)cc3nc2-c2ccccc2)cc1OC | > 100 |  |  | > 100 | > 100 | > 100 |  | > 100 | 15.5 | > 100 | 
3 | OCc1ccccc1C1CSCSC1 | > 100 |  |  |  | > 100 | > 100 |  | > 100 |  | > 100 | > 100
4 | O=C1/C(=C/c2ccc(Br)s2)NC(=S)N1CN1CCOCC1 |  | 52.8 | > 100 | 87.9 | > 100 | > 100 | > 100 | > 100 |  | 59.7 | > 100
5 | CC1CC(C#N)=C2NCCCCN2C1=O (centres undefined) | > 100 | > 100 | > 100 | > 100 | > 100 | > 100 | > 100 | > 100 |  | > 100 | > 100
6 | CCOC(=O)C(=O)N1C(C)=C(C(=O)OCC)CC(C(=O)OCC)=C1C | > 100 | > 100 | > 100 | > 100 | > 100 | > 100 | > 100 |  | > 100 | > 100 | > 100
7 | C[C@@H]1C[C@H](O)[C@]2(O)O[C@@H]3C[C@@]4(C=O)[C@@H](CC=C5[C@@H]4CC[C@]4(C)[C@@H](C6=CC(=O)OC6)CC[C@]54O)C[C@H]3O[C@@H]2O1 | 0.141 |  | 2.65 | 1.94 |  | 0.627 |  | 0.233 | 0.174 |  | 0.0468
8 | O=C(CCc1ccc(O)cc1)c1c(O)cc(O)cc1OC1OC(CO)C(O)C(O)C1O (centres undefined) | > 100 |  |  | > 100 |  | > 100 | > 100 |  | > 100 |  | 
9 | C(=Nc1ccc(-c2nc3ccccc3s2)cc1)c1ccco1 | > 100 |  |  | > 100 | > 100 | 59.1 | > 100 | > 100 | > 100 | > 100 | > 100
10 | O=C1N[C@@H]2c3c(csc3Br)C(=O)[C@@H]2O1 | > 100 | > 100 | > 100 | > 100 | 52.4 | > 100 | > 100 |  | 59.3 | 43.7 | 68.3
11 | CCOP(=O)(OCC)/C(F)=C/c1ccccc1 | > 100 | > 100 | > 100 | > 100 | > 100 | > 100 | > 100 |  | > 100 | > 100 | > 100
12 | O=C(O)Cc1ccc2nc(COC(=O)c3ccccc3)sc2c1 |  | > 100 | > 100 | > 100 |  | > 100 | > 100 |  | > 100 | > 100 | > 100
